Activity calls are given as the source filed them. The rule behind the calls is not given here.
Assay: non-covalent RecA intein splicing inhibitors, dose response, biochemical, cell-free, fluorescence, secondary screen (AID 449750)

SMILES	AC50
CC1=NN(c2ccc(C(=O)O)c(N)c2)C(=O)C1	2.87 µM
Cc1ccc(Sc2ccc(NC(=O)CCl)cc2)cc1C	0.699 µM
COc1ccc(/C=C2\SC(=S)N(CCCC(=O)Nc3ccc(O)cc3)C2=O)cc1	> 38 µM (inactive)
N#CC1=C(N)Oc2n[nH]c(-c3cccs3)c2C1c1ccccc1C(=O)O (stereo not drawn)	20.9 µM
O=C(/C=C/c1cccs1)Nc1scc(-c2ccccc2)c1C(=O)O	23.7 µM
COc1ccccc1Nc1cc2cc(Br)ccc2c(=O)[nH]1	6.07 µM
CCCc1[nH]nc2c1C(c1ccccc1OC)C(C#N)=C(N)O2 (stereo not drawn)	> 38 µM (inactive)
Cn1nc(C(C)(C)C)cc1C(=O)Sc1cccc(Br)c1	> 38 µM (inactive)
O=C(NC(=C(Cl)Cl)S(=O)(=O)c1ccc(Cl)cc1)c1ccccc1	4.78 µM
COc1ccc(N2C(=O)C(Cl)=C(Oc3cccc(OC)c3)C2=O)cc1	> 38 µM (inactive)
O=C(N/N=C/c1ccc([N+](=O)[O-])o1)c1ccccc1NS(=O)(=O)c1cccs1	> 38 µM (inactive)
O=S(=O)(Cc1ccccc1)c1cnc2ccccc2n1	> 38 µM (inactive)
COc1ccc(S(=O)(=O)c2cnc3ccccc3n2)cc1	> 38 µM (inactive)
COc1ccc(N(C(=O)c2ccco2)S(=O)(=O)c2cccs2)cc1	> 38 µM (inactive)
O=C(CCl)N(C/C=C/c1ccccc1)c1ccc2c(c1)OCCO2	1.12 µM
Cn1c(=O)c([N+](=O)[O-])c(-n2cnc3ccccc32)c2ccccc21	> 38 µM (inactive)
NC1=NN(c2cccc(C(=O)O)c2)C(=O)C1	29.4 µM
O=C(CCl)Nc1ccccc1C(=O)Nc1ccc2c(c1)OCO2	10.5 µM
COc1cc(N=Nc2cccc(S(N)(=O)=O)c2)c2ccccc2c1N	34.1 µM
Cc1cc(C(=O)CCl)c(C)n1CCc1ccccc1	14.2 µM
O=c1cc(-c2ccc(F)cc2)[nH][nH]1	17.2 µM
Oc1ccc(/C=N/Nc2ccc(C(F)(F)F)cn2)c(O)c1	> 38 µM (inactive)

SMILES	AC50
O=C(Cc1cc(=O)[nH][nH]1)N/N=C/c1cccc2ccccc12	17.4 µM
O=C(Nc1ccccc1N(C(=O)c1ccco1)S(=O)(=O)c1cccs1)c1ccco1	23.1 µM
CC(C)(C)c1csc(NC(=O)c2c(F)c(F)c(F)c(F)c2F)n1	16.3 µM
Cc1ccc(S(=O)(=O)Oc2ccc(C(c3c(C)[nH][nH]c3=O)c3c(C)[nH][nH]c3=O)cc2)cc1	2.22 µM
COc1ccc(-c2[nH]nc3c2C(c2ccncc2)C(C#N)=C(N)O3)cc1 (stereo not drawn)	39.9 µM
O=C(CNC(=O)C1COc2ccccc2O1)N/N=C\c1ccccc1Cl (stereo not drawn)	> 38 µM (inactive)
CC1=NN(c2ccc(C(=O)O)cc2)C(=O)/C1=C\c1ccc(OC(=O)c2cccs2)cc1	2.25 µM
CCOC(=O)C1(CCOc2ccccc2)CCN(Cc2ccc(O)c(Cl)c2)CC1	> 38 µM (inactive)
CC(C)CC1C(C#N)=C(N)Oc2n[nH]c(-c3ccccc3)c21 (stereo not drawn)	23.1 µM
O=c1c2ccccc2nc(/C=C/c2cccnc2)n1Cc1ccccc1	13.6 µM
CC1=NNC(=O)C1C(c1ccccc1)C1C(=O)NN=C1C (stereo not drawn)	6.67 µM
COc1ccc(/C=C2/C(=O)N(c3ccccc3)N=C2C)cc1OC	5.49 µM
C=CCN1C(=O)NC(c2ccc(OC)cc2)(C(F)(F)F)S/C1=C(\C#N)c1nnc(N2CCOCC2)n1-c1ccccc1 (stereo not drawn)	32.4 µM
CCCCCCCCCCn1c2c(c(=N)c3c1CCC3)CCC2	> 38 µM (inactive)
COc1cc(C2CC(c3cccs3)=NN2C(=O)CCl)ccc1OC(F)F (stereo not drawn)	> 38 µM (inactive)
Cc1cc(C(=O)Cn2ncc(Cl)c(Cl)c2=O)c(C)n1CC(F)(F)F	> 38 µM (inactive)
CC(C)c1[nH]nc2c1C1(CCN(Cc3ccccc3)CC1)C(C#N)=C(N)O2	> 38 µM (inactive)
CC(C)NC(=S)NC(c1ccccc1)(c1ccccc1)c1ccccc1	27.9 µM
Cc1ccc(Sc2ncnc3onc(C)c23)cc1	> 38 µM (inactive)
CCc1cc(C(=O)c2ccc(C)cc2)c(NC(=O)CCl)s1	2.62 µM
Cc1cc2c(N)cccc2nn1	> 38 µM (inactive)

— PubChem BioAssay AID449750 (Broad Institute, 2010)
